Test results published in patent US9527837B2, “Inhibitors of EZH2” (Eli Lilly and Company, priority 2014, dated 2016).

Tests used:
Karpas-422 cells = assay: Karpas-422 proliferation assay; format: cell-based; conditions: Homo sapiens, KARPAS-422, 168 h; 7 days, Cell Titer GLO
Experimental: Plate Karpas-422 cells at a density of 5000 cells/100 μL/well in 96 well, black 96-well BD BioCoat Cellware, Poly-Lysine plates (BD Biosciences, Cat#354640). 40 μL of 10 mM test compound (representing starting final concentration of 20 μM) or add 100% DMSO to a Nunc 96-Well Polypropylene MicroWell Plate (Thermo Scientific Cat# #249944). Perform serial dilutions through the transfer of 20 μL from one well to the next. Add 5 μL of compound to a 245 μL/well of growth media in a separate Nunc 96-Well Polypropylene MicroWell Plate, and stamp 11 μL of the compound/media mix onto the cell plates. Incubate cell plates at 37° C. for 7 days. Add 100 μL/well of Cell Titer GLO® reagent (Promega, Cat# G7671) to the cell plates. Shake 2 minutes and measure luminescence using a plate reader.

[1] = test system: tri-methylated H3K27 in Karpas-422 (EZH2 Y641N) cells; assay: H3K27Me3 cell-based ELISA, Karpas-422; conditions: Homo sapiens, 48 hours
Experimental: (§1) The purpose of this assay is to evaluate the ability of a compound to inhibit the functional activity of EZH2 in cells, via measurement of levels of cell tri-methylated H3K27. Plate MDA MB-231 (EZH2 WT) or Karpas-422 (EZH2 Y641N) cells at 3500/100 μL/well (for MDA MB-231) or 5,000 cells/100 μL/well (for Karpas-422) in black 96-well BD BioCoat Cellware, Poly-Lysine plates (BD Biosciences, Cat#354640). Prepare compound plates in a Nunc™ 96-Well Polypropylene MicroWell Plate (Thermo Scientific Cat# #249944) with the addition of 40 μL/well of 10 mM compound (representing starting final concentration of 20 μM) or 40 μL DMSO, then prepare serial dilutions through the transfer of 20 μL from one well to the next. Add 5 μL of test compound to 245 μL/well of growth media in a separate Nunc™ 96-Well Polypropylene MicroWell Plate, and stamp 11 μL of the compound/media mix onto the cell plates. Place cell plates in a 37° C. incubator for 48 hours. Remove plates from the incubator, place the plates at room temperature for 15-20 minutes, and spin down the plates at 1000 rpm for 5 minutes. Fix cells with 30 μL 16% paraformaldehyde for 15 minutes at room temperature. Remove the paraformaldehyde and permeabilize cells with 100 μL/well PBS minus calcium or magnesium (−/−) containing 0.1% TRITON® X-100 for 20 minutes at room temperature. […]

[2] = test system: tri-methylated H3K27 in MDA MB-231 (EZH2 WT) cells; assay: H3K27Me3 cell-based ELISA, MDA MB-231; conditions: Homo sapiens, 48 hours
Experimental: as §1

[3] = test system: tumor TNFRSF21 gene expression (Karpas-422 xenograft); assay: qPCR-based measurement of tumor-derived TNFRSF21 mRNA expression, Karpas-422 xenograft; format: in vivo, mice; conditions: 50 mpk BID oral gavage, day 7, normalized to GAPDH, p<0.0001
Experimental: (§2) The purpose of this assay is to evaluate the ability of a test compound to inhibit tumor EZH2 function and EZH2-mediated tumor growth in vivo.
To isolate RNA from tumor tissue, place tumor sections of approximately 0.5 cm by 0.25 cm or 20-30 mg in weight in Lysing Matrix D 500×2 mL Add RNASE/DNASE-free tubes with beads for homogenization (MP Biomedicals, REF: 6913-500). Add 650 μL of RLT buffer from RNeasy® Kit (Qiagen; Cat#74104). Homogenize samples 2 to 3 times at speed 6 for 20 seconds in the FastPrep FP120 homogenizer. Set samples on ice to cool for 10 minutes. Centrifuge at 13 000 rpm for 10 minutes at 4° C. Place supernatants into a QIA tube and isolate RNA using the RNeasy® Kit (Qiagen; Cat#74104).
Prepare cDNA from 3 μg of tumor RNA using the High Capacity cDNA Reverse Transcription Kit (Applied Biosystems; Cat#4368813) and incubate samples in a PCR Thermocycler using the following cycle conditions: 10 minutes at 25° C.; 2 hours at 37° C., hold at 4° C. Amplify cDNA product using Thermo Scientific ABsolute Blue QPCR ROX Mix (Applied Biosystems; Cat# AB-4139) and Taqman probes for TNFRSF21 (Applied Biosystems; Cat# Hs01560899_m1) and housekeeping gene GAPDH (Applied Biosystems; Cat# Hs02758991-g1) in the Applied Biosystems ViiA 7™ Real-Time PCR cycler. Calculate TNFRSF21 cycle threshold values and normalize to its respective sample's GAPDH levels. […]

[4] = test system: tumor tri-methylated H3K27 (Karpas-422 xenograft); assay: ELISA-based measurement of tumor-derived tri-methylated H3K27, Karpas-422 xenograft; format: in vivo; conditions: mice, 50 mpk BID oral gavage, day 7, p<0.0001
Experimental: as §2
To acid-extract histones from tumors, place tumor sections of approximately 0.5 cm by 0.25 cm or 20-30 mg in weight in Lysing Matrix D 500×2 mL Add RNASE/DNASE-free tubes with beads for homogenization (MP Biomedicals, Cat#6913-500). Add 650 μL of Acid Lysis Buffer (0.4 N HCl containing Protease Inhibitor Cocktail Tablets (Roche; Cat#11836153001)). Homogenize tumor samples 2-3 times at speed 6 m/second for 20 seconds in a FastPrep FP120 homogenizer. Set samples on ice for 1 hour to separate. Transfer supernatants to an eppendorf tube and place on a tube rotator to lyse overnight at 4° C. Spin samples down at 8000 rpm for 10 minutes at 4° C. Transfer supernatants to a new tube and measure for protein concentration.
Add 150 μL/well of MSD Blocking Solution A (Meso Scale Discovery (MSD); final concentration of 3%) to a MULTI-SPOT® Tri-Methyl-Histone H3(K27) Singleplex plate (MSD; Cat#: N45CA-1). Shake at room temperature for 1 hour. Wash the plate with 1×MSD Tris Wash Buffer™ (MSD), (3×). Dispense 0.25 μg of tumor lysate in 25 μL Acid Lysis Buffer per well in triplicate. Shake overnight at 4° C. […] Add 150 μL/well 1×MSD® Read Buffer and measure chemoelectroluminescence using a MSD SECTOR® Imager 6000 instrument.

IC50 (Karpas-422 cells) | IC50 [1] | IC50 [2] | SMILES | increase in tumor TNFRSF21 gene expression [3] | inhibition of tumor methylation [4]
526 nM | 144 ± 232 nM | 9.02 ± 2.69 nM | COC1CN([C@H]2CC[C@H]([C@H](C)c3scc(C(=O)NCc4c(C)cc(C)[nH]c4=O)c3C)CC2)C1 [Example 2, N-[(4,6-Dimethyl-2-oxo-1,2-dihydropyridin-3-yl)methyl]-5-{(1S)-1-[trans-4-(3-methoxyazetin-1-yl)cyclohexyl]ethyl}-4-methylthiophene-3-carboxamide] | – | –
49.7 ± 33.9 nM | 3.79 ± 1.02 nM | 1.88 ± 0.66 nM | COC1CN([C@H]2CC[C@H]([C@@H](C)c3scc(C(=O)NCc4c(C)cc(C)[nH]c4=O)c3C)CC2)C1 [Example 1, N-[(4,6-Dimethyl-2-oxo-1,2-dihydropyridin-3-yl)methyl]-5-{(1R)-1-[trans-4-(3-methoxyazetidin-1-yl)cyclohexyl]ethyl}-4-methylthiophene-3-carboxamide] | 25 fold | 53%
